Source: patent US20130102631A1, “NOVEL MICROBIOCIDAL DIOXIME ETHER DERIVATIVES” (SYNGENTA CROP PROTECTION LLC, priority 2010, published 2013)

What was measured:
[1] = test system: Monographella nivalis (Microdochium nivale); assay: Monographella nivalis (Microdochium nivale) / liquid culture (foot rot cereals); type: cell-based; settings: at ≦200 ppm, liquid culture PDB, inhibition of growth photometrically 4-5 days after application, read-out: control of Monographella nivalis
Summary of the method: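 Microdochium nivale conidia in potato dextrose broth added to compound delivered in DMSO, then incubated at 24 °C. Growth inhibition measured photometrically 4-5 days after application.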

Glomerella lagenarium = Glomerella lagenarium (Colletotrichum lagenarium) / liquid culture (anthracnose); type: cell-based; settings: Colletotrichum orbiculare; at ≦200 ppm, liquid culture PDB, inhibition of growth photometrically 3-4 days after application; read-out: control of Glomerella lagenarium
Summary of the method: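 Glomerella lagenarium conidia in potato dextrose broth added to test compound supplied in DMSO in microtiter wells. Plates incubated at 24° C.; growth inhibition measured photometrically 3-4 days after application.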

[2] = test system: Thanatephorus cucumeris (Rhizoctonia solani); assay: Thanatephorus cucumeris (Rhizoctonia solani) / liquid culture (foot rot, damping-off); type: cell-based; settings: at ≦200 ppm, liquid culture PDB, inhibition of growth photometrically 3-4 days after application, read-out: control of Thanatephorus cucumeris
Protocol: Thanatephorus cucumeris (Rhizoctonia solani)/Liquid Culture (Foot Rot, Damping-Off Mycelia fragments of a newly grown liquid culture of the fungus are directly mixed into nutrient broth (PDB potato dextrose broth). After placing a DMSO solution of the test compounds into a 96-well microtiter, the nutrient broth containing the fungal material was added. The test plates were incubated at 24° C. and the inhibition of growth was determined photometrically 3-4 days after application. […]-2.508 5.561; 2.561; P.57; 2.513; 2.559; 2.558; 2.553; 2.533; 2.530; 2.526; 2.519; 2.517; 2.516; 2.514; 2.512; 2.514

[3] = test system: Mycosphaerella arachidis (Cercospora arachidicola); assay: Mycosphaerella arachidis (Cercospora arachidicola) / liquid culture (early leaf spot); type: cell-based; settings: at ≦200 ppm, liquid culture PDB, inhibition of growth photometrically 4-5 days after application, read-out: control of Mycosphaerella arachidis
Summary of the method: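 Cryostored Cercospora arachidicola conidia were mixed into potato dextrose broth and added to test compound in DMSO. Incubation was at 24° C. Growth inhibition was read photometrically 4-5 days after application.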

[4] = test system: Blumeria graminis f. sp. tritici (Erysiphe graminis f. sp. tritici); assay: Blumeria graminis f. sp. tritici / wheat / leaf disc preventative (powdery mildew on wheat); type: in vivo; settings: foliar, wheat leaf segments cv. Kanzler, inoculated 1 day after application, assessed 6-8 days after application
Summary of the method: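 Wheat cv. Kanzler leaf segments on agar sprayed with formulated compound at 200 ppm, inoculated 1 day later with powdery mildew, incubated at 20° C, 60% RH (24 h dark then 12 h/12 h). Percent disease control versus untreated scored 6-8 days after application.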

[5] = test system: Puccinia recondita f. sp. tritici; assay: Puccinia recondita f. sp. tritici / wheat / leaf disc preventative (brown rust); type: in vivo; settings: foliar, wheat leaf segments cv Kanzler, inoculated 1 day after application, assessed 7-9 days after application
Protocol: Puccinia recondita f. sp. Tritici/Wheat/Leaf Disc Preventative (Brown Rust): Wheat leaf segments cultivated variety (cv) Kanzler were placed on agar in 24-well plates and sprayed with formulated test compound diluted in water at an application rate of 200 ppm. The leaf disks were inoculated with a spore suspension of the fungus 1 day after application. The inoculated leaf segments were incubated at 19° C. and 75% relative humidity under a light regime of 12/12 h (light/dark) in a climate cabinet and the activity of a compound was assessed as percent disease control compared to untreated when an appropriate level of disease damage appears in untreated check leaf segments (7-9 days after application). […]-2.508; 5.561; 2.561; 2.513; 2.559; 2.556; 2.555; 2.374; 2.544; 2.537; 2.530; 2.525 (fraction B); 2.519; 2.516; 2.514; E/E-5.167; E/E-3.002; 2.512; E/E-2.507

Cc1ccc(O)c(/C=N/OCC(C)(C)CO/N=C2\CCCc3ccc(C)nc32)n1 [Compound 2.533]
≥ 80%: inhibition of growth at up to 200 µg/mL [1] | inhibition of growth at up to 200 µg/mL (Glomerella lagenarium) | inhibition of growth at up to 200 µg/mL [2] | inhibition of growth at up to 200 µg/mL [3] | pest or weed control at 200 ppm [4]

C/C(=N\OCC(C)(C)CO/N=C1\CCCc2ccc(C)nc21)c1cc(C)cc(C)n1 [E/E-2.168]
≥ 80%: inhibition of growth at up to 200 µg/mL [1] | pest or weed control at 200 ppm [5] | inhibition of growth at up to 200 µg/mL (Glomerella lagenarium) | inhibition of growth at up to 200 µg/mL [2] | inhibition of growth at up to 200 µg/mL [3] | pest or weed control at 200 ppm [4]

C/C(=N\OCC(C)(C)CO/N=C1\CCCc2ccc(C)nc21)c1ccc2ccccc2n1 [Compound 2.512]
≥ 80%: inhibition of growth at up to 200 µg/mL [1] | pest or weed control at 200 ppm [5] | inhibition of growth at up to 200 µg/mL (Glomerella lagenarium) | inhibition of growth at up to 200 µg/mL [2] | inhibition of growth at up to 200 µg/mL [3] | pest or weed control at 200 ppm [4]

Cc1cccc(/C(=N/OCC(C)(C)CO/N=C2\CCCc3ccc(C)nc32)c2ccccc2)n1 [E/E-2.474]
≥ 80%: inhibition of growth at up to 200 µg/mL [1] | pest or weed control at 200 ppm [5] | inhibition of growth at up to 200 µg/mL (Glomerella lagenarium) | inhibition of growth at up to 200 µg/mL [2] | inhibition of growth at up to 200 µg/mL [3] | pest or weed control at 200 ppm [4]

Cc1ccc2c(n1)/C(=N/OCC(C)(C)CO/N=C/c1ccc3ccccc3n1)CCC2 [E/E-2.507]
≥ 80%: inhibition of growth at up to 200 µg/mL [1] | pest or weed control at 200 ppm [5] | inhibition of growth at up to 200 µg/mL (Glomerella lagenarium) | inhibition of growth at up to 200 µg/mL [2] | inhibition of growth at up to 200 µg/mL [3]

C/C(=N\OCC1(CO/N=C2\CCCc3c2nc2ccccc2c3C)CC1)c1cc(C)cc(C)n1 [Compound 5.561]
≥ 80%: pest or weed control at 200 ppm [5] | inhibition of growth at up to 200 µg/mL (Glomerella lagenarium) | inhibition of growth at up to 200 µg/mL [2] | inhibition of growth at up to 200 µg/mL [3] | pest or weed control at 200 ppm [4]

COc1cccc(/C(C)=N/OCC(C)(C)CO/N=C2\CCCc3ccc(C)nc32)n1 [Compound 2.374]
≥ 80%: inhibition of growth at up to 200 µg/mL [1] | pest or weed control at 200 ppm [5] | inhibition of growth at up to 200 µg/mL (Glomerella lagenarium) | inhibition of growth at up to 200 µg/mL [3] | pest or weed control at 200 ppm [4]

C/C(=N\OCC(C)(C)CO/N=C1\CCCc2c1nc1ccccc1c2C)c1cc(C)cc(C)n1 [Compound 2.561]
≥ 80%: pest or weed control at 200 ppm [5] | inhibition of growth at up to 200 µg/mL (Glomerella lagenarium) | inhibition of growth at up to 200 µg/mL [2] | inhibition of growth at up to 200 µg/mL [3] | pest or weed control at 200 ppm [4]

C=C(CO/N=C(\C)c1cccc(C)n1)CO/N=C1\CCCc2ccc(C)nc21 [E/E-3.002]
≥ 80%: pest or weed control at 200 ppm [5] | inhibition of growth at up to 200 µg/mL (Glomerella lagenarium) | inhibition of growth at up to 200 µg/mL [3] | pest or weed control at 200 ppm [4]

C/C(=N\OCC(C)(C)CO/N=C1\CCCc2ccc(Cl)nc21)c1cc(C)cc(C)n1 [Compound 2.555]
≥ 80%: inhibition of growth at up to 200 µg/mL [1] | pest or weed control at 200 ppm [5] | inhibition of growth at up to 200 µg/mL (Glomerella lagenarium) | inhibition of growth at up to 200 µg/mL [3] | pest or weed control at 200 ppm [4]

C/C(=N\OCCCO/N=C1\CCCc2ccc(C)nc21)c1cccc(-c2ccccc2)n1 [Compound 2.514]
≥ 80%: inhibition of growth at up to 200 µg/mL [1] | pest or weed control at 200 ppm [5] | inhibition of growth at up to 200 µg/mL (Glomerella lagenarium) | inhibition of growth at up to 200 µg/mL [2] | inhibition of growth at up to 200 µg/mL [3] | pest or weed control at 200 ppm [4]

C/C(=N/OCC(C)(C)CO/N=C1\CCCc2ccc(C)nc21)c1ccccn1 [Compound 2.519]
≥ 80%: inhibition of growth at up to 200 µg/mL [1] | pest or weed control at 200 ppm [5] | inhibition of growth at up to 200 µg/mL (Glomerella lagenarium) | inhibition of growth at up to 200 µg/mL [2] | inhibition of growth at up to 200 µg/mL [3] | pest or weed control at 200 ppm [4]

CC/C(=N\OCC(C)(C)CO/N=C1\CCCc2ccc(C)nc21)c1ccccn1 [Compound 2.516]
≥ 80%: inhibition of growth at up to 200 µg/mL [1] | pest or weed control at 200 ppm [5] | inhibition of growth at up to 200 µg/mL (Glomerella lagenarium) | inhibition of growth at up to 200 µg/mL [2] | inhibition of growth at up to 200 µg/mL [3] | pest or weed control at 200 ppm [4]

C/C(=N\OCC(C)(C)CO/N=C1\CCCc2ccc(Oc3ccccc3)nc21)c1cc(C)cc(C)n1 [Compound 2.556]
≥ 80%: inhibition of growth at up to 200 µg/mL [1] | pest or weed control at 200 ppm [5] | inhibition of growth at up to 200 µg/mL (Glomerella lagenarium) | inhibition of growth at up to 200 µg/mL [3] | pest or weed control at 200 ppm [4]

C/C(=N\OCC1(CO/N=C2\CCCc3ccc(C)nc32)CC1)c1cc(C)cc(C)n1 [E/E-5.167]
≥ 80%: inhibition of growth at up to 200 µg/mL [1] | pest or weed control at 200 ppm [5] | inhibition of growth at up to 200 µg/mL (Glomerella lagenarium) | inhibition of growth at up to 200 µg/mL [3] | pest or weed control at 200 ppm [4]

C/C(=N\OCC(C)(C)CO/N=C1\CCCc2ccc(C)nc21)c1cccc(Br)n1 [E/E-2.508]
≥ 80%: inhibition of growth at up to 200 µg/mL [1] | pest or weed control at 200 ppm [5] | inhibition of growth at up to 200 µg/mL (Glomerella lagenarium) | inhibition of growth at up to 200 µg/mL [2] | inhibition of growth at up to 200 µg/mL [3]

Cc1ccc2c(n1)/C(=N/OCC(C)(C)CO/N=C/c1cccc(Oc3ccccc3)n1)CCC2 [Compound 2.530]
≥ 80%: inhibition of growth at up to 200 µg/mL [1] | pest or weed control at 200 ppm [5] | inhibition of growth at up to 200 µg/mL (Glomerella lagenarium) | inhibition of growth at up to 200 µg/mL [2] | inhibition of growth at up to 200 µg/mL [3] | pest or weed control at 200 ppm [4]

C/C(=N\OCC(C)(C)CO/N=C1\CCCc2ccc(C)nc21)c1ccc2c(n1)CCCC2 [Compound 2.513]
≥ 80%: inhibition of growth at up to 200 µg/mL [1] | pest or weed control at 200 ppm [5] | inhibition of growth at up to 200 µg/mL (Glomerella lagenarium) | inhibition of growth at up to 200 µg/mL [2] | inhibition of growth at up to 200 µg/mL [3] | pest or weed control at 200 ppm [4]

C/C(=N\OCC(C)(C)CO/N=C1\CCCc2ccc(-c3cccc(C)n3)nc21)c1cc(C)cc(C)n1 [Compound 2.559]
≥ 80%: inhibition of growth at up to 200 µg/mL [1] | pest or weed control at 200 ppm [5] | inhibition of growth at up to 200 µg/mL (Glomerella lagenarium) | inhibition of growth at up to 200 µg/mL [2] | inhibition of growth at up to 200 µg/mL [3] | pest or weed control at 200 ppm [4]

C/C(=N\OCC(C)(C)CO/N=C1\CCCc2ccc(C)nc21)c1cccc(C)n1 [E/E-2.002]
≥ 80%: inhibition of growth at up to 200 µg/mL [1] | pest or weed control at 200 ppm [5] | inhibition of growth at up to 200 µg/mL (Glomerella lagenarium) | inhibition of growth at up to 200 µg/mL [2] | inhibition of growth at up to 200 µg/mL [3] | pest or weed control at 200 ppm [4]
